Assay results: patent US7223733B2, “Modulation of TRIP-Br function and method of treating proliferative disorders” (National University of Singapore, priority 2004, dated 2007)
Where no end group is shown, it is not given here.

How the values were obtained:
[1] = system: caspase-3 protease activity; assay: Caspase assay with Ac-DEVD-AFC in U2OS cells; assay type: cell-based, human; conditions: 50 μM decoy peptides, 48 or 72 h
Description: Caspase assay. Both adherent and detached cells in 6-well dishes were harvested by centrifugation at 2000 rpm for 15 min at 4° C. The resulting cell pellets were incubated in 50 μl of chilled lysis buffer (Clontech) on ice for 10 min. Cell lysates were incubated in a reaction mix containing 10 mM HEPES, 2.0 mM EDTA, 10 mM KCl, 1.5 mM MgCl2, 1.0 mM PMSF, aprotinine, pepstatin A and leupeptine (20 μM each), 6.0 mM DTT and Ac-DEVD-AFC (4.0 μg/ml). Reactions were allowed to proceed at room temperature. Fluorescence readings were taken at 15 min intervals for 1 h using a spectrofluorometer (excitation wavelength: 400 nm; emission wavelength: 505 nm).
(§1) FIG. 6: Caspase assay. (A) Caspase 3 protease activity in U2OS cells exposed to either Eto (Etoposide) for 24 h or 50 μM decoy peptides for 48 or 72 h, were assayed using the Ac-DEVD-AFC fluorogenic substrate. […] Values represent the average +/− standard deviation of two independent experiments. Control: cells cultured in normal growth medium; Vehicle: cells cultured in the presence of 0.5% DMSO; (B) Western blot analysis of PARP cleavage. U2OS cells were exposed to either Eto (Etoposide) for 24 h or 50 μM decoy peptides for 72 h. Lane 1: Vehicle cells (cultured in the presence of 0.5% DMSO for 24 h); Lane 2: 25 μM Eto; Lane 3: 250 μM Eto; Lane 4: Vehicle (cells cultured in the presence of 0.5% DMSO for 72 h); Lane 5: *SCR; Lane 6: *Br1; Lane 7: *Br2.

[2] = system: KRIP-1/TRIP-Br PHD-bromodomain interaction; assay: Immunoprecipitation assay of GAL4-KRIP-1/TRIP-Br complex formation (in vitro translated proteins); assay type: binding; conditions: 25 μM decoy peptides pre-incubated with GAL4-KRIP-1
KRIP-1/TRIP-Br PHD-bromodomain interaction, sequence (Q62318 621-811 limits assumed): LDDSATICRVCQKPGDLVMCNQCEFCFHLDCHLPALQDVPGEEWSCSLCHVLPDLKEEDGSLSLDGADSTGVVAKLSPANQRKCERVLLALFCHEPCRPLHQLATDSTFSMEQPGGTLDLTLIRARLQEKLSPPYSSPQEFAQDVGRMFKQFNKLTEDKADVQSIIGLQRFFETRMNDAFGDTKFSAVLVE
Description: Preparation of proteins by in vitro translation. In vitro translation (IVT) products were synthesized from pcDNA3/TRIP-Br1, pcDNA3/TRIP-Br2 and pBlueScript/GAL4-KRIP-1 using the TNT T7 coupled reticulocyte lysate system (Promega). The in vitro translation reactions were carried out in a total reaction volume of 50 μl by incubating 1.0 μg of the indicated DNA template in nuclease-free water with 30 μl of TNT Quick master mix in the presence of [^35S]-methionine (Met) at 30° C. for 90 minutes.
Immunoprecipitation assay (IP). The binding reactions for IP were performed by incubating 1.5 μl [^35S]-Met labeled GAL4 or GAL4-KRIP-1 IVT products with 3 μl [^35S]-Met labeled TRIP-Br1 or TRIP-Br2 IVT products in 1×IP buffer (Hsu, S. I. H., et al. EMBO J. 20, 2273-2285 (2001)) at 4° C. for 1 h. For the analysis of decoy peptide-mediated blocking activity, the GAL4-KRIP-1 IVT product was pre-incubated with 25 μM decoy peptides at 4° C. for 30 minutes prior to addition of full-length TRIP-Br1 or TRIP-Br2 IVT products. Protein complexes precipitated using agarose-conjugated anti-GAL4 antibody were resolved by SDS-PAGE and then processed for autoradiography.
FIG. 1: TRIP-Br decoy peptides antagonize KRIP-1/TRIP-Br PHD-bromodomain interactions. […] GAL4-KRIP-1 was specifically immunoprecipitated by the agarose-conjugated anti-GAL4 antibody (Lanes 3-5 & 7–10) but not by the non-specific control anti-cyclin E antibody (Lane 6); (B) Antagonism of PHD-bromodomain interactions in vivo. U2OS cells were transiently transfected with 0.4 μg of the indicated GAL4 expression constructs and 1.2 μg of pMT3A/KRIP-1, along with 0.4 μg of the minimal luciferase reporter pG5-GL3 and 0.1 μg of the control reporter pCMV/β-gal. The transfected cells were exposed to either vehicle (0.5% DMSO) or 50 μM of the indicated decoy peptides prior to harvesting for sequential assay of luciferase and galactosidase activity. Fold activation refers to luciferase activity normalized to β-galactosidase activity, and is expressed relative to the activity observed with transfection of the reporter alone. […]

cyclins and Cdks = assay: Cell cycle protein expression profile of U2OS cells released from nocodazole arrest (Western blot); assay type: cell-based, human; conditions: U2OS released from nocodazole block; for timing of cyclin E protein accumulation: 20 μM; for absolute levels of cyclin E protein: up to 24 h post-release
Description: Cell synchronization and cell cycle progression analyses. U2OS cells in 6-well dishes were subjected to nocodazole treatment (75 ng/ml) for 22 h. Thereafter, the nocodazole-arrested cultures were released by washing with 1×PBS and grown in DMEM plus 10% FBS containing either vehicle (0.5% DMSO) or 20 μM decoy peptides. Cells were harvested at 4-h intervals for standard Western blot analyses. For the analysis of Geminin protein profile, mock- or cyclin E/Cdk2-transfected U2OS cells were exposed to nocodazole (75 ng/ml) at 3 h post-transfection for 22 h. Denaturing SDS-PAGE and western blotting. Proteins from whole cell lysate and IP complexes were separated using standard denaturing polyacrylamide gel electrophoresis as described previously (Hsu, S. I. H., et al. EMBO J 20, 2273-2285 (2001)). FIG. 7: Cell cycle protein expression profile and protein decay analysis. (A) Protein expression profile of U2OS cells released from nocodazole arrest in the absence or presence of decoy peptide treatment. Protein expression of various cyclins and Cdks was assessed by Western blotting using whole cell lysates from synchronized U2OS cells at 4, 8, 12, 16, 20 and 24 h after release. Coomassie-stained proteins served as loading controls; (B) U2OS cells transfected with vector backbone (vehicle) or pRc/cyclin E and pCMV/Cdk2 (1 μg each), were arrested at the G2/M boundary by exposure to nocodazole (75 ng/ml) and then released to re-enter the cell cycle. Protein expression of cyclin E and Geminin was assessed using whole cell lysates from synchronized U2OS cells at 0, 4, 8, 12, 16 and 20 h after release; (C) Protein decay analysis of Geminin expression in the absence or presence of cyclin E/Cdk2 over-expression (left panel) or in the absence or presence of decoy peptide treatment (right panel) by Western blotting (WB). Coomassie stained proteins served as the loading control (C).

PARP cleavage = assay: Western blot analysis of PARP cleavage in U2OS cells; assay type: cell-based, human; conditions: 50 μM decoy peptides, 72 h
Description: Denaturing SDS-PAGE and western blotting. Proteins from whole cell lysate and IP complexes were separated using standard denaturing polyacrylamide gel electrophoresis as described previously (Hsu, S. I. H., et al. EMBO J 20, 2273-2285 (2001)).
as §1

Sequence | caspase-3 protease activity in cell lysates [1] | GAL4-KRIP-1/TRIP-Br complex formation (co-IP of TRIP-Br1 or TRIP-Br2) [2] | timing of cyclin E protein accumulation (cyclins and Cdks) | PARP cleavage compared to vehicle or *SCR-treated control (PARP cleavage) | absolute levels of cyclin E protein (cyclins and Cdks)
ERQIKIWFQNRRMKWKKGLDEDGLLLFCEGDTIAD (Peptide containing penetratin sequence from Drosophila and random peptide sequence) [*SCR, reference compound] | indistinguishable from the baseline activity | did not affect GAL4-KRIP-1/TRIP-Br complex formation | accumulated during mid-to-late G1 between 8 h and 16 h post-release |  | 
ERQIKIWFQNRRMKWKKATGCLLDDGLEGLFEDID (ERQIKIWFQNRRMKWKKATGCLLDDGLEGLFEDID-NH2) [*Br1] | indistinguishable from the baseline activity | dramatically reduced the ability of GAL4-KRIP-1 to co-IP TRIP-Br1 or TRIP-Br2 | premature accumulation of cyclin E beginning in early G1 | not associated with significant PARP cleavage | dramatically up-regulated and sustained at high levels
ERQIKIWFQNRRMKWKKTGFLTDLTLDDILFADID (ERQIKIWFQNRRMKWKKTGFLTDLTLDDILFADID-NH2) [*Br2] | indistinguishable from the baseline activity | dramatically reduced the ability of GAL4-KRIP-1 to co-IP TRIP-Br1 or TRIP-Br2 | premature accumulation of cyclin E beginning in early G1 | not associated with significant PARP cleavage | dramatically up-regulated and sustained at high levels
